# Reference: patent US9315534B2, “Radiologic agents for monitoring alzheimer's disease progression and Evaluating a Response to Therapy and processes for the preparation of such agents” (BOARD OF REGENTS OF THE UNIVERSITY OF NEBRASKA, priority 2007, dated 2016)
# Columns and labels:
# BChE [1] = biological target: T1, BChE (Mus musculus, UniProt Q03311)
# Protocol: Biodistribution studies were also conducted on 3, another BChE-binding derivative, in AD mouse and in normal controls. This study of 3 was conducted in >12-months old AD mice and matching control mice. All mice received IV 10 μCi of 3. Mice were killed 48 hours later. Tissues were collected and their radioactive content determined in a γ counter. One-half of each brain was fixed. The radioactivity in the other half was counted in a γ counter.
# BChE [2] = biological target: T1, BChE; conditions: IV 0.5 mCi, 48 hours
# Protocol: FIG. 7 provides images of microautoradiography of brain sections of AD mouse treated with IV dose of 0.5 mCi 3. Mouse was killed 48 hours after the administration of 3. Counterstained H&E; 10×.
# FIG. 8 provides a microautoradiography of brain sections of the matching control mouse also treated with IV doses of 0.5 mCi 3. Mouse was killed 48 hours after the administration of 3. Counterstained H&E; 10×.
# FIG. 9 provides an image of a section of brain from control mouse treated with 3 48 hours before necropsy. 100×; H&E.
# FIG. 10 provides images of brain sections from AD mouse 48 hours after IV dose of 0.5 mCi 3. […] FIG. 10D: Cross-section of a blood vessel containing red blood cells surrounded by silver grains corresponding to circulating 3.
# FIG. 8 is the corresponding section of a brain from a matched control mouse treated in the same manner. […] Imperfections in focus are because brain sections and silver grains are in different planes, tissue section vs. emulsion.
# AChE = AChE (Bos taurus, UniProt P23795); conditions: SDS-PAGE autoradiogram
# Protocol: Lanes 1, 2: BChE-containing mouse serum incubated with 2a in (1) PBS+DMSO; (2) PBS+0.1% Triton X100+DMSO. Lanes 3-5: AChE-only containing bovine serum incubated with 2a in (3) DMSO; (4) PBS+DMSO; (5) PBS+0.1% Triton X-100+DMSO.
# BChE [3] = biological target: T1, BChE; conditions: for activity in head of AD mouse, planar image: 1 hour after tail vein IV 0.5 mCi
# Protocol: Two sets of preliminary biodistribution studies were conducted: (1) in normal athymic mice to determine general biodistribution and the brain uptake; and (2) in at least ˜7-14 months old APPswe mice (strain B6C3-Tg(APPswe,PSEN1dE9)85 Dbo/J; abbreviated as AD mice in the text below). JAX® GEMM® Strain wildtype mice from the colony were used as the control. B6C3-Tg(APPswe,PSEN1dE9) 85 Dbo/J is a double transgenic mice expressing chimeric mouse/human amyloid precursor protein(Mo/Hu APP695swe) and a mutant human presenilin 1(PS1-dE9) both directed to CNS neurons. Both mutations are associated with the early onset AD. Aβ plaques are produced in these mice in hippocampus and cortex by 9 months of age with the occasional deposits found in mice as young as 6 months of age (Jankowsky et al. (2004) Hum. Mol. Genet., 13:159-70; Garcia-Alloza et al. (2006) Neurobiol. Dis., 24:516-524). Planar imaging was done using a pinhole gamma camera. […] In both images mice are positioned with the dorsal surface of the mouse facing the pinhole collimator. […] There were 6 mice per each time point.
# [4] = Solubility in water, buffers and physiologically appropriate solvents
# [5] = Partition coefficient, shake-tube method, 1-octanol and water; assay type: physicochemical; conditions: 1-octanol/water; for Partition coefficient P avg (std dev): 19° C., 125I-labeled pure diastereomers
# Source text: In order to reach intracerebral targets, drugs developed for diagnosis of the AD must be able to cross two barriers separating the central nervous system (CNS) from the periphery (Hansch et al. (1987) J. Pharm. Sci., 76:663-87.), the blood-brain barrier and the blood-cerebrospinal fluid barrier. Therefore the preliminary evaluation of the new drugs included partition coefficients. CNS agents that are highly lipid soluble with the log octanol-water partition coefficient between 1 and 3 have the equilibration half-times that are proportional to brain solubility (Atkinson et al. (2002) Curr. Med. Chem., 2:229-40; Dutta et al. (1998) Br. J. Anaesth., 81:422-4; Buchwald et al. (1998) Curr. Med. Chem., 5:353-80). Only pure SP and RP diastereomers were used. Ten μCi of each ^125I-labeled compound was added to 3 mL of water, the mixture was vortexed and 1-mL aliquots were transferred into fresh tubes. To each tube 1 mL of 1-octanol was added and the mixtures were vigorously vortexed until a homogenous suspension formed. At this point, the organic and water layers were separated by centrifugation at 19° C. Aliquots of each phase were gently removed and counted in a gamma counter in a triplicate. Typically, each KP was calculated as an average of n≧18.
# T1 sequence (Q03311 30-603): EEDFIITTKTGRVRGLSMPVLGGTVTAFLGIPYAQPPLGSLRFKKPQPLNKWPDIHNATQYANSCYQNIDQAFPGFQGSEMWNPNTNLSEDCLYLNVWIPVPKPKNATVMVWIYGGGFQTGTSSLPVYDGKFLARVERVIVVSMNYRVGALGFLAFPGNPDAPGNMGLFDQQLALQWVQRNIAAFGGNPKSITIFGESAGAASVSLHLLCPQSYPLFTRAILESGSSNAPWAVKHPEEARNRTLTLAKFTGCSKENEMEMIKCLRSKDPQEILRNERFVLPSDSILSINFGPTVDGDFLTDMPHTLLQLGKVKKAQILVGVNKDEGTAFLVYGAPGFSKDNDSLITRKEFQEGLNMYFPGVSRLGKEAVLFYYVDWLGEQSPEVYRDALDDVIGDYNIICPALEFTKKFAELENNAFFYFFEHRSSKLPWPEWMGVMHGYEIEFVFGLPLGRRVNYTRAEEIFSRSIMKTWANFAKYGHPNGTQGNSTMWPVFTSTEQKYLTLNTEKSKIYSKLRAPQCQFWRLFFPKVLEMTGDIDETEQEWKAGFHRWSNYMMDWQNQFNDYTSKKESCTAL
# Sequence of AChE (P23795 31-613): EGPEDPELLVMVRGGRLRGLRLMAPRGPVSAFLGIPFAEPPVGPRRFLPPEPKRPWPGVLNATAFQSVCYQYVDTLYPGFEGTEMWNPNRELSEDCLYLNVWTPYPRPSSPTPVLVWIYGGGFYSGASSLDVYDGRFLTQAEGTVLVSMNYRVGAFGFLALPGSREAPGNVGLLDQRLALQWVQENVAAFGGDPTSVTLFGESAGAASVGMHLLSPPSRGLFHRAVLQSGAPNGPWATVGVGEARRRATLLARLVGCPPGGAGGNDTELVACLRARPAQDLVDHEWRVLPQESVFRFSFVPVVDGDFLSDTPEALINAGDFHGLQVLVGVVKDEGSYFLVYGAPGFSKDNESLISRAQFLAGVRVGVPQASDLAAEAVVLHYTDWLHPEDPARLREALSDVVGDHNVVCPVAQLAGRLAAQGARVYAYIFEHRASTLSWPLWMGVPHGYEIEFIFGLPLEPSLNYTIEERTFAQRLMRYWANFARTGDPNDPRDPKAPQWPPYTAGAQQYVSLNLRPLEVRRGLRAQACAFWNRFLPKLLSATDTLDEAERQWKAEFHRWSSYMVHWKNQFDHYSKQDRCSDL
smiles,measurement,setting,value
O=c1[nH]c(=O)n(C2CC(O)C(COP3(=O)OCc4ccccc4O3)O2)cc1[125I] (mixture of isomers) [Compound 3],brain uptake AD mice compared to wildtype controls,BChE [1]; 48 hours after IV,~3 times
same,brain uptake in AD mice,"BChE [1]; >12-months old AD mice, IV 10 μCi, 48 hours",0.085±0.008 % ID/g
same,brain uptake in matching wildtype controls,"BChE [1]; control mice, IV 10 μCi, 48 hours",0.030±0.011 % ID/g
same,clusters of radioactivity in brain of AD mice,BChE [2]; AD mouse,large clusters of radioactivity
same,clusters of radioactivity in brains of control mice,BChE [2]; control mouse,practically absent
CC(C)(C)c1cc(C(C)(C)C)c2c(c1F)COP(=O)(OCC1OC(n3cc([125I])c(=O)[nH]c3=O)CC1O)O2 (stereo not drawn) [Compound 2a],"binding to bovine serum (AChE, no BChE)",AChE,complete absence
same,"activity in head of AD mouse, planar image",BChE [3],accumulation of 2a in the head of the AD mouse
same,"percent injected dose per gram brain, 2a versus 2b","BChE [3]; AD mice, IV, all time points, 6 mice per time point",significantly higher
same,solubility in buffers and other physiologically appropriate solvents,[4],low
CC(C)(C)c1cc(C(C)(C)C)c2c(c1F)COP(=O)(OCC1OC(n3cc([125I])c(=O)[nH]c3=O)CC1O)O2 (stereo not drawn) [Compound 2b],"activity in head of AD mouse, planar image",BChE [3],only the background level of activity
O=c1[nH]c(=O)n(C2CC(O)C(COP3(=O)OCc4ccccc4O3)O2)cc1[125I] (stereo not drawn) [Compound 3a],log P,[5],0.623
same,Partition coefficient P avg (std dev),[5],4.19 (0.12)
O=c1[nH]c(=O)n(C2CC(O)C(COP3(=O)OCc4ccccc4O3)O2)cc1[125I] (stereo not drawn) [Compound 3b],log P,[5],0.652
same,Partition coefficient P avg (std dev),[5],4.49 (0.25)
Cc1cccc2c1OP(=O)(OCC1OC(n3cc([125I])c(=O)[nH]c3=O)CC1O)OC2 (stereo not drawn) [Compound 4a],log P,[5],0.857
same,Partition coefficient P avg (std dev),[5],7.19 (0.37)
Cc1cccc2c1OP(=O)(OCC1OC(n3cc([125I])c(=O)[nH]c3=O)CC1O)OC2 (stereo not drawn) [Compound 4b],log P,[5],0.846
same,Partition coefficient P avg (std dev),[5],7.02 (0.34)
